Data published in US11053204B2, “Pyrimidinyloxy benzene derivatives as herbicides” (FMC Corporation, priority 2015, dated 2021).

How the values were obtained:
Type in all cases: in vivo
[1] = test system: Italian ryegrass (Lolium multiflorum); test: Test A preemergence, visual injury rating
Procedure, shortened: (§1)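 Visual 0–100 rating (100 = complete control) taken about 10 d post-treatment relative to untreated checks. Preemergence: directed soil spray on sown loam/sand pots. Postemergence: seedlings 2–10 cm, 1–2 leaf. Non-phytotoxic solvent formulation with surfactant.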

[2] = test system: barnyardgrass (Echinochloa crus-galli); test: Test A preemergence, visual injury rating
Procedure, shortened: as §1

[3] = test system: giant foxtail (Setaria faberii); test: Test A preemergence, visual injury rating
Procedure, shortened: as §1

kochia (Kochia scoparia) = test: Test A preemergence, visual injury rating
Procedure, shortened: as §1

[4] = test system: pigweed (Amaranthus retroflexus); test: Test A preemergence, visual injury rating
Procedure, shortened: as §1

[5] = test system: ragweed (common ragweed, Ambrosia elatior); test: Test A preemergence, visual injury rating
Procedure, shortened: as §1

[6] = test system: barnyardgrass (Echinochloa crus-galli); test: Test B flooded paddy test, plant response rating; conditions: 250 g ai/ha; Flood; scale of 0 to 100 where 0 is no effect and 100 is complete control; 13 to 15 days
Procedure, shortened: (§2)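 Pots were flooded to 3 cm above the soil surface at treatment, compound applied directly to the paddy water, and that depth held throughout. Plants were kept in a greenhouse for 13 to 15 days, then visually rated against untreated controls.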

[7] = test system: ducksalad (Heteranthera limosa); test: Test B flooded paddy test, plant response rating; conditions: 250 g ai/ha; Flood; scale of 0 to 100 where 0 is no effect and 100 is complete control; 13 to 15 days
Procedure, shortened: as §2

rice (Oryza sativa) = test: Test B flooded paddy test, plant response rating; conditions: 250 g ai/ha; Flood; scale of 0 to 100 where 0 is no effect and 100 is complete control; 13 to 15 days
Procedure, shortened: as §2

[8] = test system: sedge, umbrella (small-flower umbrella sedge, Cyperus difformis); test: Test B flooded paddy test, plant response rating; conditions: 250 g ai/ha; Flood; scale of 0 to 100 where 0 is no effect and 100 is complete control; 13 to 15 days
Procedure, shortened: as §2

[9] = test system: blackgrass (Alopecurus myosuroides); test: Test C preemergence, plant response rating; conditions: Preemergence
Procedure, shortened: (§3)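 Visual injury score, 0 = no effect, 100 = complete control, assigned against untreated controls after 13 to 15 d in the greenhouse. Compounds were applied in a surfactant-containing non-phytotoxic solvent mix, preemergence to seeded loam/sand or silt loam soil, or postemergence to 1- to 4-leaf plants (2 to 18 cm).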

corn (Zea mays) = test: Test C preemergence, plant response rating; conditions: Preemergence
Procedure, shortened: as §3

[10] = test system: crabgrass, large (large crabgrass, Digitaria sanguinalis); test: Test C preemergence, plant response rating; conditions: Preemergence
Procedure, shortened: as §3

[11] = test system: foxtail, giant (giant foxtail, Setaria faberii); test: Test C preemergence, plant response rating; conditions: Preemergence
Procedure, shortened: as §3

[12] = test system: oilseed rape (Brassica napus); test: Test C preemergence, plant response rating; conditions: Preemergence
Procedure, shortened: as §3

[13] = test system: ragweed (common ragweed, Ambrosia elatior); test: Test C preemergence, plant response rating; conditions: Preemergence
Procedure, shortened: as §3

[14] = test system: ryegrass, Italian (Italian ryegrass, Lolium multiflorum); test: Test C preemergence, plant response rating; conditions: Preemergence
Procedure, shortened: as §3

soybean (Glycine max) = test: Test C preemergence, plant response rating; conditions: Preemergence
Procedure, shortened: as §3

[15] = 31 g ai/ha, 0 to 100 scale, 0 no effect, 100 complete control
[16] = 125 g ai/ha, 0 to 100 scale (0 no effect, 100 complete control)
[17] = 500 g ai/ha, 0 to 100 scale (0 no effect, 100 complete control)

## FC(F)(F)CCCCc1c(Br)cccc1Oc1ncc(Cl)cn1 [Compound 138]
[1]; [15]
  Plant response rating, Ryegrass, Italian: 10
[1]; [16]
  Plant response rating, Ryegrass, Italian: 100
[2]; [15]
  Plant response rating, Barnyardgrass: 70
[2]; [16]
  Plant response rating, Barnyardgrass: 100
[3]; [15]
  Plant response rating, Foxtail, Giant: 90
[3]; [16]
  Plant response rating, Foxtail, Giant: 100
Kochia (Kochia scoparia); [15]
  Plant response rating, Kochia: 50
Kochia (Kochia scoparia); [16]
  Plant response rating, Kochia: 100
[4]; [15]
  Plant response rating, Pigweed: 80
[4]; [16]
  Plant response rating, Pigweed: 100
[5]; [15]
  Plant response rating, Ragweed: 0
[5]; [16]
  Plant response rating, Ragweed: 0
[6]
  Plant response rating, Barnyardgrass: 50
[7]
  Plant response rating, Ducksalad: 100
Rice (Oryza sativa)
  Plant response rating, Rice: 45
[8]
  Plant response rating, Sedge, Umbrella: 85
[9]; 125 g ai/ha, scale of 0 to 100
  Plant response rating, Blackgrass: 90
[9]; 16 g ai/ha, scale 0 to 100
  Plant response rating, Blackgrass: 10
[9]; 31 g ai/ha, scale 0 to 100
  Plant response rating, Blackgrass: 50
[9]; 62 g ai/ha, scale 0 to 100
  Plant response rating, Blackgrass: 80
Corn (Zea mays); 125 g ai/ha, scale of 0 to 100
  Plant response rating, Corn: 5
Corn (Zea mays); 16 g ai/ha, scale 0 to 100
  Plant response rating, Corn: 0
Corn (Zea mays); 31 g ai/ha, scale 0 to 100
  Plant response rating, Corn: 0
Corn (Zea mays); 62 g ai/ha, scale 0 to 100
  Plant response rating, Corn: 5
[10]; 125 g ai/ha, scale of 0 to 100
  Plant response rating, Crabgrass, Large: 98
[10]; 16 g ai/ha, scale 0 to 100
  Plant response rating, Crabgrass, Large: 75
[10]; 31 g ai/ha, scale 0 to 100
  Plant response rating, Crabgrass, Large: 95
[10]; 62 g ai/ha, scale 0 to 100
  Plant response rating, Crabgrass, Large: 98
[11]; 125 g ai/ha, scale of 0 to 100
  Plant response rating, Foxtail, Giant: 100
[11]; 31 g ai/ha, scale 0 to 100
  Plant response rating, Foxtail, Giant: 80
[11]; 62 g ai/ha, scale 0 to 100
  Plant response rating, Foxtail, Giant: 85
[12]; 125 g ai/ha, scale of 0 to 100
  Plant response rating, Oilseed Rape: 20
[12]; 31 g ai/ha, scale 0 to 100
  Plant response rating, Oilseed Rape: 0
[12]; 62 g ai/ha, scale 0 to 100
  Plant response rating, Oilseed Rape: 5
[13]; 125 g ai/ha, scale of 0 to 100
  Plant response rating, Ragweed: 10
[13]; 31 g ai/ha, scale 0 to 100
  Plant response rating, Ragweed: 0
[13]; 62 g ai/ha, scale 0 to 100
  Plant response rating, Ragweed: 0
[14]; 125 g ai/ha, scale of 0 to 100
  Plant response rating, Ryegrass, Italian: 80
[14]; 31 g ai/ha, scale 0 to 100
  Plant response rating, Ryegrass, Italian: 10
[14]; 62 g ai/ha, scale 0 to 100
  Plant response rating, Ryegrass, Italian: 20
Soybean (Glycine max); 125 g ai/ha, scale of 0 to 100
  Plant response rating, Soybean: 5
Soybean (Glycine max); 31 g ai/ha, scale 0 to 100
  Plant response rating, Soybean: 0
Soybean (Glycine max); 62 g ai/ha, scale 0 to 100
  Plant response rating, Soybean: 0

## N#Cc1cccc(Oc2ncc(Cl)cn2)c1C(=O)OCCC(F)(F)F [Compound 30]
[1]; [16]
  Ryegrass, Italian plant response rating: 0
[1]; [17]
  Ryegrass, Italian plant response rating: 0
[2]; [16]
  Barnyardgrass plant response rating: 0
[2]; [17]
  Barnyardgrass plant response rating: 0
[3]; [16]
  Foxtail, Giant plant response rating: 100
[3]; [17]
  Foxtail, Giant plant response rating: 100
Kochia (Kochia scoparia); [16]
  Kochia plant response rating: 90
Kochia (Kochia scoparia); [17]
  Kochia plant response rating: 100
[4]; [16]
  Pigweed plant response rating: 100
[4]; [17]
  Pigweed plant response rating: 100
[5]; [16]
  Ragweed plant response rating: 0
[5]; [17]
  Ragweed plant response rating: 0
[6]
  Plant response rating, Barnyardgrass: 0
[7]
  Plant response rating, Ducksalad: 40
Rice (Oryza sativa)
  Plant response rating, Rice: 0
[8]
  Plant response rating, Sedge, Umbrella: 0
[9]; 62 g ai/ha, scale of 0 to 100
  Plant response rating, Blackgrass: 0
[9]; 125 g ai/ha, scale of 0 to 100
  Plant response rating, Blackgrass: 0
[9]; 16 g ai/ha, scale 0 to 100
  Plant response rating, Blackgrass: 0
[9]; 31 g ai/ha, scale 0 to 100
  Plant response rating, Blackgrass: 0
Corn (Zea mays); 62 g ai/ha, scale of 0 to 100
  Plant response rating, Corn: 0
Corn (Zea mays); 125 g ai/ha, scale of 0 to 100
  Plant response rating, Corn: 5
Corn (Zea mays); 16 g ai/ha, scale 0 to 100
  Plant response rating, Corn: 0
Corn (Zea mays); 31 g ai/ha, scale 0 to 100
  Plant response rating, Corn: 0
[10]; 62 g ai/ha, scale of 0 to 100
  Plant response rating, Crabgrass, Large: 80
[10]; 125 g ai/ha, scale of 0 to 100
  Plant response rating, Crabgrass, Large: 98
[10]; 16 g ai/ha, scale 0 to 100
  Plant response rating, Crabgrass, Large: 0
[10]; 31 g ai/ha, scale 0 to 100
  Plant response rating, Crabgrass, Large: 35
[11]; 62 g ai/ha, scale of 0 to 100
  Plant response rating, Foxtail, Giant: 65
[11]; 125 g ai/ha, scale of 0 to 100
  Plant response rating, Foxtail, Giant: 75
[11]; 16 g ai/ha, scale 0 to 100
  Plant response rating, Foxtail, Giant: 5
[11]; 31 g ai/ha, scale 0 to 100
  Plant response rating, Foxtail, Giant: 30
[12]; 125 g ai/ha, scale of 0 to 100
  Plant response rating, Oilseed Rape: 100
[12]; 16 g ai/ha, scale 0 to 100
  Plant response rating, Oilseed Rape: 10
[12]; 31 g ai/ha, scale 0 to 100
  Plant response rating, Oilseed Rape: 55
[12]; 62 g ai/ha, scale 0 to 100
  Plant response rating, Oilseed Rape: 100
[13]; 125 g ai/ha, scale of 0 to 100
  Plant response rating, Ragweed: 0
[13]; 16 g ai/ha, scale 0 to 100
  Plant response rating, Ragweed: 0
[13]; 31 g ai/ha, scale 0 to 100
  Plant response rating, Ragweed: 0
[13]; 62 g ai/ha, scale 0 to 100
  Plant response rating, Ragweed: 0
[14]; 125 g ai/ha, scale of 0 to 100
  Plant response rating, Ryegrass, Italian: 5
[14]; 16 g ai/ha, scale 0 to 100
  Plant response rating, Ryegrass, Italian: 0
[14]; 31 g ai/ha, scale 0 to 100
  Plant response rating, Ryegrass, Italian: 0
[14]; 62 g ai/ha, scale 0 to 100
  Plant response rating, Ryegrass, Italian: 0
Soybean (Glycine max); 125 g ai/ha, scale of 0 to 100
  Plant response rating, Soybean: 60
Soybean (Glycine max); 16 g ai/ha, scale 0 to 100
  Plant response rating, Soybean: 0
Soybean (Glycine max); 62 g ai/ha, scale 0 to 100
  Plant response rating, Soybean: 10
